The numbers were not newly measured in patent US20050043329A1, “Crystalline forms of valacyclovir hydrochloride” (priority 2002, published 2005), which cites them from elsewhere.

For data set [1] the following is noted: after oral administration in healthy adults.
The conditions of data set [2]: after oral administration.

The structures appear in SMILES notation.

With `CC(C)[C@H](N)C(=O)OCCOCn1cnc2c(=O)[nH]c(N)nc21` [valacyclovir, 1-valine, 2-[(2-amino-1,6-dihydro-6-oxo-9H-purin-9-yl)methoxy]ethyl ester], the conversion to acyclovir result in data set [1] is “converted rapidly and virtually completely”. Also, the “absorption from the gastrointestinal tract” value in data set [2] is “rapidly absorbed”.
